“Also recorded” adds a separate entry of the source. Square brackets hold non-standard residues; d marks the D form. Ends that are not written are not given here. NMeA = CN[C@@H](C)C(=O)O
Experiments:
C6 cells [1] = test: In vivo apoptosis assay: peptide-pretreated C6 cells in a diffusion chamber implanted s.c. in rats; parameters: species or system rat; conditions: for % Recovery (24 hs) / ability to induce apoptosis (in words) / Percent Recovery: C6 cells; for % Recovery (24 hs): peptide at 5×10^−M, 24 hs in diffusion chamber, % of original inoculum; for ability to induce apoptosis (in words): preincubation at 10^−5 M; for Percent Recovery: 24 hours in diffusion chamber; for Recovery (%): C6 rat glioblastoma cells pre-treated with 50 μM peptide 24 hours in serum-free medium, chamber in rats 24 hours
Description: (§1) The test for apoptosis in vivo was based on the use of the diffusion chamber described in detail by Resnicoff, M., et al., Cancer Res. 55: 2463-2469 (1995). According to this method, the cells are placed in a diffusion chamber that allows the passage of nutrients, antigens, antibodies, etc., but not of intact cells. The sterilized chamber is loaded with cells and then inserted into the subcutaneous tissue of rats or mice; after 24 hours, (or at other times, depending on the experiment) the chamber is removed and the number of cells in the chamber is determined with a hemocytometer, and expressed as a percentage of the original inoculum. The cells are also stained with trypan blue for viability; in the experience of the inventors, surviving cells are >95% viable.
(§2) For in vivo effects, 5×10^5 cells (C6 and CaOV-3 were both used for these studies) were placed in diffusion chambers and implanted into the s.c. tissue of the animals. Once the skin was sutured, the peptides were injected s.c. next to the chambers at the indicated concentrations in a final volume of 0.2 ml. Twenty-four hours later, the chambers were removed from the animals and the cells were quantitatively recovered.
(from gp100), involved in regression of human melanoma (Kawakami et al. 1994); 2) […], recognized by melanoma-specific human CTL lines (Cox et al, 1994); and 3) […], derived from connexin 37, that induces CTL responses against murine lung carcinoma (Mandelboim, et al., 1994). For each of these peptides, a control peptide having the same amino acid composition, but in scrambled order (controls), was also tested. C6 cells were preincubated with the peptides at a concentration of 10^−5M and transferred to the diffusion chamber (see Methods and Materials). Cell number was determined after 24 hours in the diffusion chamber transplanted into the subcutaneous tissue of rats.
Two of the three peptides were selected for further studies of the effects of mutations on the ability to induce apoptosis. Several point mutations were introduced into the peptide […]. […] Mutations at tyrosine in position 1, or the two prolines in positions 4 and 6, effectively inactivated peptide no. 2. An exception to this observation was seen when the prolines were replaced by an N-methyl amino acid. Mutations at E3 or T8 had little effect, but when both residues were mutated, recovery increased to 77%.
In order to determine the minimum concentration of these peptides that still would induce apoptosis in vivo, C6 cells were preincubated with different concentrations of the […] and D-amino acid […] peptides and recovery of viable cells was determined after 24 hours in the diffusion chamber.

C6 cells [2] = test: Protection from subsequent challenge with wild type C6 cells; format: in vivo, rat
Description: Synthetic peptide sequences listed above were tested at 5×10^−M on C6 cells. Tests for apoptosis and for protection from subsequent challenge with C6 cells are described herein. Point mutations are shown in bold characters.

C6 glioblastoma cells = format: in vivo, rat; parameters: dose or concentration left out as unconfirmed; conditions: C6 cells pre-treated 24 hours in serum-free medium
[3] = tested on: CaOV3 cells (human ovarian carcinoma cells); test: Diffusion chamber assay, CaOV3 cells in mice, peptide injected s.c. next to chamber; format: in vivo, mouse; conditions: Balb/c mice, 0.2 ml of 0.05 mM peptide s.c. next to chamber, 24 hours
Description: as §1, §2
Human ovarian carcinoma cells CaOV3 (Resnicoff, et al. (1993)) were loaded into a diffusion chamber, and the chamber was inserted into the subcutaneous tissue of mice. The animals were then injected, also subcutaneously next to the chamber, with 0.2 ml of a 0.05 mM solution of four different peptides, and the number of cells was determined 24 hours later. […] The control peptide had no effect, and the number of cells more than doubled. CaOV3 cells also undergo apoptosis, as determined by FACS analysis.
CaOV3 cells (human ovarian carcinoma cells, 5×10^5 cells) were placed without any previous treatment into diffusion chambers that were then implanted into the subcutaneous tissue of Balb/c mice. Animals were then injected subcutaneously next to the chambers either with 0.2 ml of a 0.05 mM solution of one of the three test peptides or with 0.2 ml of a 0.05 mM solution of the control peptide.

C6 cells [4] = test: Tumorigenesis of C6 cells in nude mice; format: in vivo; conditions: for Expected Delay: calculated from % cells recovered; for Palpable Tumors: s.c. in nude mice
Description: C6 cells pre-incubated with various concentrations (10^−12, 10^−10, 10^−8, and 10^−5 M) of the peptide YLRPGPVTA were injected simultaneously into nude mice and the time of appearance of subcutaneous tumors was determined. In parallel experiments, the percentage of cells killed in the diffusion chamber assay was determined. From the percentage of cells killed, the expected delay in the appearance of tumors in mice was calculated as described previously (Resnicoff, et al., Cancer Res. 55:3739 (1995)). […] The time of appearance of tumors is slightly more delayed than expected from the percentage of cells killed in 24 hours in the diffusion chamber assay, a phenomenon previously observed also with antisense oligodeoxynucleotides to the IGF-IR RNA (Resnicoff, et al., Cancer Res. 55:3739 (1995)).
A similar inhibition of tumorigenesis was observed using the D-amino acid peptide LRLTATGDLL. In this case, the peptide (all D-aa, sequence from Kawakami, et al. (1994)) was injected s.c. into nude mice (0.1 ml, at the indicated concentrations), simultaneously with C6 cells (10^5 cells in 0.1 ml) and next to them. The animals were followed for tumor development. The results were as follows: For C6 cells without peptide injection, the tumors appeared after 4 days; for a peptide injection at 10^−10 to 10^−12 M, tumors appeared after 11 days.
C6 cells were incubated with the synthetic peptide at the indicated final concentrations for 24 hours in serum-free medium before injection into the subcutaneous tissue of seven week-old male Dalb/c nude mice. Percentage recovery was determined using the diffusion chamber assay as described herein. Expected Delay is the number of days after injection before the tumors should become palpable, based on survival in vivo estimated by percentage of cells recovered. […] Three nude mice were used in each experimental condition.

C6 cells [5] = test: FACS analysis of apoptotic cells in the diffusion chamber; parameters: species or system rat; conditions: C6 cells incubated in vivo for 90 minutes in diffusion chamber
Description: In order to determine that the loss of cells upon treatment with active peptides was due to the induction of apoptosis, the presence of apoptotic cells within the diffusion chamber was determined at several time intervals by FACS analysis (Sell, et al. (1995)). FIG. 1 represents a typical experiment using C6 cells. […] In both cases, the cells had been incubated in vivo for 90 minutes in a diffusion chamber as described herein. […] Similar results were obtained at several time intervals thereafter.

C6/p35 cells = test: Diffusion chamber apoptosis test on C6 cells expressing baculovirus p35; format: in vivo, rat; conditions: untreated versus incubated with peptide
Description: In addition, one of the common pathways of apoptotic injury is through the ICE proteins ([…] (1996)). The activation of ICE and ICE-like proteins is inhibited by the p35 protein of baculovirus (Clem and Miller (1994)), which can also be functional in mammalian cells (Rabizadeh, et al. (1993). To determine whether the synthetic peptides caused apoptosis through the ICE pathway, a plasmid expressing the p35 protein was stably introduced into C6 cells. C6 and C6/p35 cells were then tested for apoptosis in the diffusion chambers, using the synthetic peptide […]. 2 is a composite picture showing the expression of p35 in the various cell lines, and, below each lane, the percentage of cells recovered from the diffusion chamber.

ALEPGPVTA [point mutant of …]
% Recovery (24 hs) (C6 cells [1]): 224.0% | Protection from wild type cell challenge (C6 cells [2]): no

ATVPGPELY (D-amino acids) [ATVPGPELY (D-amino acid)]
ability to induce apoptosis (in words) (C6 cells [1]; diffusion chamber): as effective as the L-amino acid sequences | % Recovery (24 hs) (C6 cells [1]): 6.0% | Protection from wild type cell challenge (C6 cells [2]): yes

GILGFVPTL [Peptide M158-66, synthetic peptide corresponding to one derived from influenza virus]
Recovery (%) (C6 glioblastoma cells): 23.4%

LLDGTATLRL [MHC Class I peptide derived from gp100, human melanoma specific antigen]
% Recovery (24 hs) (C6 cells [1]): 5.0% | Protection from wild type cell challenge (C6 cells [2]): yes

LRLTATGDLL (D-amino acids) [LRLTATGDLL (D-amino acid)]
ability to induce apoptosis (in words) (C6 cells [1]; diffusion chamber): as effective as the L-amino acid sequences | Percent Recovery (C6 cells [1]; peptide 10^−5 M): 0.5% | Percent Recovery (C6 cells [1]; peptide 10^−8 M): 3.0% | Percent Recovery (C6 cells [1]; peptide 10^−12 M): 6.6% | Percent Recovery (C6 cells [1]; peptide 10^−13 M, listed as LRLTATGDLL (D-aa)): 18.0% | % Recovery (24 hs) (C6 cells [1]): 4.9% | Percent Recovery [3]: 6.6% | Protection from wild type cell challenge (C6 cells [2]): yes | time of appearance of tumors (C6 cells [4]; peptide 0.1 ml s.c. at 10^−10 to 10^−12 M, simultaneously with and next to 10^5 C6 cells, nude mice): 11 days

SMAPGNYSV [control peptide, reference compound]
apoptotic cells by FACS analysis (C6 cells [5]): not

TLGIVCPI [HPV-16 E786-93, MHC Class I peptide derived from Human Papilloma Virus Type 16 (HPV-16) E7 protein]
Recovery (%) (C6 cells [1]): 27%

YAEPGPVTA [point mutant of …]
% Recovery (24 hs) (C6 cells [1]): 186.0% | Protection from wild type cell challenge (C6 cells [2]): no

YLAPGPVTA [point mutant of …]
% Recovery (24 hs) (C6 cells [1]): 7.4% | Protection from wild type cell challenge (C6 cells [2]): yes

YLEAGPVTA [point mutant of …]
% Recovery (24 hs) (C6 cells [1]): 224.0% | Protection from wild type cell challenge (C6 cells [2]): no

YLEPAPVTA [point mutant of …]
% Recovery (24 hs) (C6 cells [1]): 70.0% | Protection from wild type cell challenge (C6 cells [2]): no

YLEPGAVTA
% Recovery (24 hs) (C6 cells [1]): 260.0% | Percent Recovery [3]: 280% | Protection from wild type cell challenge (C6 cells [2]): no

YLEPGPATA [point mutant of …]
% Recovery (24 hs) (C6 cells [1]): 11.0% | Protection from wild type cell challenge (C6 cells [2]): yes

YLEPGPVAA [point mutant of …]
% Recovery (24 hs) (C6 cells [1]): 9.3% | Protection from wild type cell challenge (C6 cells [2]): yes

YLEPGPVKA [point mutant of …]
% Recovery (24 hs) (C6 cells [1]): 12.0% | Protection from wild type cell challenge (C6 cells [2]): yes

YLEPGPVTA [MHC Class I peptide recognized by melanoma-specific human CTL lines]
% Recovery (24 hs) (C6 cells [1]): 3.0% | Percent Recovery [3]: 0.2% | Protection from wild type cell challenge (C6 cells [2]): yes | apoptotic cells by FACS analysis (C6 cells [5]): Apoptotic cells are detectable

YLEXGXVTA (X: N-Methyl-A) (YLE[NMeA]G[NMeA]VTA) [… with prolines replaced by an N-methyl amino acid]
% Recovery (24 hs) (C6 cells [1]): 6.5% | Protection from wild type cell challenge (C6 cells [2]): yes

YLRPGPVRA [double mutant (E3 and T8) of …]
% Recovery (24 hs) (C6 cells [1]): 77.0% | Protection from wild type cell challenge (C6 cells [2]): no

YLRPGPVTA [point mutant of …]
% Recovery (C6 cells [1]; C6 cells incubated with 10^−5 M peptide 24 hours in serum-free medium, diffusion chamber): 0.3% | % Recovery (C6 cells [1]; C6 cells incubated with 10^−8 M peptide 24 hours in serum-free medium, diffusion chamber): 2.1% | % Recovery (C6 cells [1]; C6 cells incubated with 10^−10 M peptide 24 hours in serum-free medium, diffusion chamber): 4.5% | % Recovery (C6 cells [1]; C6 cells incubated with 10^−12 M peptide 24 hours in serum-free medium, diffusion chamber): 18% | Percent Recovery (C6 cells [1]; peptide 10^−5 M): 0.3% | Percent Recovery (C6 cells [1]; peptide 10^−8 M): 2.1% | Percent Recovery (C6 cells [1]; peptide 10^−10 M): 4.5% | Percent Recovery (C6 cells [1]; peptide 10^−12 M): 18% | % Recovery (24 hs) (C6 cells [1]): 3.5% | apoptosis in C6 cells and C6 cells stably transfected with the empty vector (C6 cells [1]; diffusion chamber, treated with peptide): underwent apoptosis | Percent Recovery [3]: 3.0% | growth of clones expressing the p35 protein in the diffusion chamber (C6/p35 cells): grew in the diffusion chamber equally well whether untreated or incubated with the synthetic peptide; also recorded: grew in the diffusion chamber equally well, whether untreated or incubated with the synthetic peptide | Protection from wild type cell challenge (C6 cells [2]): yes | Expected Delay (C6 cells [4]; 10^−5 M peptide): 14 days | Expected Delay (C6 cells [4]; 10^−8 M peptide): 11 days | Expected Delay (C6 cells [4]; 10^−10 M peptide): 10 days | Expected Delay (C6 cells [4]; 10^−12 M peptide, days before tumors should become palpable): 8 days | Palpable Tumors (C6 cells [4]; C6 cells pre-incubated with 10^−5 M peptide): 21 days | Palpable Tumors (C6 cells [4]; C6 cells pre-incubated with 10^−8 M peptide): 15 days | Palpable Tumors (C6 cells [4]; C6 cells pre-incubated with 10^−10 M peptide): 14 days | Palpable Tumors (C6 cells [4]; C6 cells pre-incubated with 10^−12 M peptide, days after injection): 11 days | inhibition of tumorigenesis (in words) (C6 cells [4]; C6 cells pre-treated with peptide at 10^−12 to 10^−5 M, nude mice): concentration-dependent inhibition of tumorigenesis

YMLDLQPETT [HPV-16 E711-20, MHC Class I peptide derived from Human Papilloma Virus Type 16 (HPV-16) E7 protein]
Recovery (%) (C6 cells [1]): 13%

Source: patent US20020165136A1, “MHC peptides and methods of use” (Thomas Jefferson University, priority 1996, published 2002)
